Data from paper PMC10578352, “Identification of a Protein Arginine Methyltransferase 7 (PRMT7)/Protein Arginine Methyltransferase 9 (PRMT9) Inhibitor” (Journal of Medicinal Chemistry, 2023).

Biological target: T1, human recombinant PRMT9 (Homo sapiens, UniProt Q6P2P2)
T1 construct: human recombinant PRMT9 (2–845; N-terminal FLAG-tag, C-terminal His6-tag); FLAG (N); His6 (C); purchased BPS BioScience 79124
T1 sequence (Q6P2P2 2-845): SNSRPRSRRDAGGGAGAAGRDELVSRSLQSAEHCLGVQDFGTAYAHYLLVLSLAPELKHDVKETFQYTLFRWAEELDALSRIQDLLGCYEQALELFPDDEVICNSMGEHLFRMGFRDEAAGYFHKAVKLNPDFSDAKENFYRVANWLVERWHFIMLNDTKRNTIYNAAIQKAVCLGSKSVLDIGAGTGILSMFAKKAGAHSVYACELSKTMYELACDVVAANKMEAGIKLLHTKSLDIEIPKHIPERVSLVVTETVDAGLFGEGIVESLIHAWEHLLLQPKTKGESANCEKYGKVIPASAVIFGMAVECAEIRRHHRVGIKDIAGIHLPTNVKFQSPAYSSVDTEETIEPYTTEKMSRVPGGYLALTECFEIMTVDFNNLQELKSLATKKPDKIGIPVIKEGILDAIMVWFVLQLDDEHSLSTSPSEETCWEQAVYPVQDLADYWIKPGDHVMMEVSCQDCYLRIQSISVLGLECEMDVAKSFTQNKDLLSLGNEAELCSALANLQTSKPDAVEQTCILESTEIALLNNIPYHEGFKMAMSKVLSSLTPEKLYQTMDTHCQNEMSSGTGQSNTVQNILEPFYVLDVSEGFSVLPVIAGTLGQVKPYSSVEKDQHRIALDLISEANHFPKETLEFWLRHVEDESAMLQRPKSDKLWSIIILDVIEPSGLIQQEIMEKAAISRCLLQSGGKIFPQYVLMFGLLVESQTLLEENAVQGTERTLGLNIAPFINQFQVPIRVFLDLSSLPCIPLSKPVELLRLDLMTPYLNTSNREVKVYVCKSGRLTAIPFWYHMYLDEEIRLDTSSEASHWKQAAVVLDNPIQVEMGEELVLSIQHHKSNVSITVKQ
Test: SPR binding to immobilized PRMT9
Conditions: 1:1 Langmuir model, 25 °C
Protocol: To characterize the effect of compound 1j on PRMT9, we resolved to evaluate its direct binding to the target protein using surface plasmon resonance (SPR). To this aim, human recombinant PRMT9 (2–845; N-terminal FLAG-tag, C-terminal His6-tag) was covalently immobilized on a sensor chip surface using an amine coupling approach and compound 1j was injected over the active and reference cells at 10 different concentrations (2-fold dilution series) from 25 to 0.05 μM using the multicycle modality. Each injection was performed with an association and a dissociation time of 90 and 180 s, respectively, and with a flow rate of 30 μL/min. To reduce false positives from detergent-sensitive, nonspecific aggregation-based binding, detergents (0.05% Tween20) were added to the running buffer in all experiments. The corrected sensorgrams were fitted simultaneously by kinetic analysis using the 1:1 Langmuir model of the BIAevaluation software to obtain equilibrium dissociation constants (KD) and kinetic dissociation (koff) and association (kon) constants, and the curve-fitting efficiency was evaluated by chi-square (χ^2). The χ^2 value of 1j was calculated to be 0.650, indicating a good fit.
SPR experiments were performed on a Biacore T200 biosensor (Cytiva). […] The curve-fitting efficiency was evaluated by the chi-square (χ^2). […]

PRMT9 SPR residence time (τR = 1/koff): 500 s
Kd (KD = koff/kon): 188 nM
SMILES: COC(=O)c1cc(O)c2cc(NC(=O)NCCCNC(=N)NC[C@H]3O[C@@H](n4cnc5c(N)ncnc54)[C@H](O)[C@@H]3O)cc(C(F)(F)F)c2c1 [1j, Methyl 6-(3-(3-(3-(((2R,3S,4R,5R)-5-(6-Amino-9H-purin-9-yl)-3,4-dihydroxytetrahydrofuran-2-yl)methyl)guanidino)propyl)ureido)-4-hydroxy-8-(trifluoromethyl)-2-naphthoate]
